In ChEMBL document CHEMBL6103654, “Design, Biological Characterization, and Discovery of Capromorelin Derivatives as Oral Growth Hormone Secretagogue Receptor Type 1a Agonist for the Treatment of Growth Hormone Deficiency” (J Med Chem, 2025):

Tests used:
[1] = test system: Rattus norvegicus; experiment: Induction of growth hormone level in Juvenile Sprague-Dawley rat blood at 10 mg/kg, po administered as single dose measured immediately by ELISA method (reference value: 28.5+/-8.7 ng/mL); type: functional
[2] = test system: Rattus norvegicus; experiment: Induction of growth hormone level in adult Sprague-Dawley rat blood at 10 mg/kg, po administered as single dose measured immediately by ELISA method (reference value: 12.6+/-4.4 ng/mL); type: functional
[3] = test system: Rattus norvegicus; experiment: Induction of growth hormone level in Juvenile Sprague-Dawley rat blood at 10 mg/kg, po administered as single dose measured after 1 hr by ELISA method (reference value: 45.2+/-12.5 ng/mL); type: functional
[4] = test system: Rattus norvegicus; experiment: Induction of growth hormone level in adult Sprague-Dawley rat blood at 10 mg/kg, po administered as single dose measured after 10 mins by ELISA method (reference value: 13.7+/-7.2 ng/mL); type: functional
[5] = test system: Rattus norvegicus; experiment: Induction of growth hormone level in Juvenile Sprague-Dawley rat blood by measuring AUC(0 to 40 mins) at 10 mg/kg, po administered as single dose by ELISA method (reference value: 20.2+/-4.3 ng/mL); type: functional, organism-based
[6] = test system: Rattus norvegicus; experiment: Induction of growth hormone level in Juvenile Sprague-Dawley rat blood at 10 mg/kg, po administered as single dose measured after 40 mins by ELISA method (reference value: 40.1+/-11.0 ng/mL); type: functional
[7] = test system: Rattus norvegicus; experiment: Induction of growth hormone level in adult Sprague-Dawley rat blood at 10 mg/kg, po administered as single dose measured after 40 mins by ELISA method (reference value: 14.4+/-6.9 ng/mL); type: functional
[8] = test system: Rattus norvegicus; experiment: Induction of growth hormone level in adult Sprague-Dawley rat blood by measuring AUC(0 to 40 mins) at 10 mg/kg, po administered as single dose by ELISA method (reference value: 7.0+/-1.7 ng/mL); type: functional, organism-based
[9] = test system: Rattus norvegicus; experiment: Induction of growth hormone level in adult Sprague-Dawley rat blood at 10 mg/kg, po administered as single dose measured after 20 mins by ELISA method (reference value: 4.9+/-1.1 ng/mL); type: functional
[10] = test system: Rattus norvegicus; experiment: Induction of growth hormone level in Juvenile Sprague-Dawley rat blood at 10 mg/kg, po administered as single dose measured after 10 mins by ELISA method (reference value: 23.2+/-5.6 ng/mL); type: functional
[11] = test system: Rattus norvegicus; experiment: Induction of growth hormone level in Juvenile Sprague-Dawley rat blood at 10 mg/kg, po administered as single dose measured after 2 hrs by ELISA method (reference value: 26.5+/-7.3 ng/mL); type: functional
[12] = test system: Rattus norvegicus; experiment: Induction of growth hormone level in Juvenile Sprague-Dawley rat blood at 10 mg/kg, po administered as single dose measured after 20 mins by ELISA method (reference value: 29.1+/-8.6 ng/mL); type: functional
[13] = test system: Rattus norvegicus; experiment: Induction of growth hormone level in Juvenile Sprague-Dawley rat blood at 10 mg/kg, po administered as single dose measured after 4 hrs by ELISA method (reference value: 32.5+/-4.5 ng/mL); type: functional

Which results are given for `CC(C)(N)C(=O)N[C@H](COCc1ccccc1)C(=O)N1CCC2(CC1)CN(S(C)(=O)=O)c1ccccc12` [IBUTAMOREN]?
Activity [1]: 58.1 ng/mL; Activity [2]: 15.4 ng/mL; Activity [3]: 76.2 ng/mL; Activity [4]: 133.9 ng/mL; AUC [5]: 123 ng·h/mL; Activity [6]: 76.3 ng/mL; Activity [7]: 25 ng/mL; AUC [8]: 45.6 ng·h/mL; Activity [9]: 71.3 ng/mL; Activity [10]: 290.9 ng/mL; Activity [11]: 52.4 ng/mL; Activity [12]: 227.8 ng/mL; Activity [13]: 61.3 ng/mL
